The assay concerns the target T1, recombinant guanylate cyclase reporter cell line (Rattus norvegicus, UniProt P19686+P20595).
T1 construct: expressed in transfected cells
T1 sequence (P19686 1-690): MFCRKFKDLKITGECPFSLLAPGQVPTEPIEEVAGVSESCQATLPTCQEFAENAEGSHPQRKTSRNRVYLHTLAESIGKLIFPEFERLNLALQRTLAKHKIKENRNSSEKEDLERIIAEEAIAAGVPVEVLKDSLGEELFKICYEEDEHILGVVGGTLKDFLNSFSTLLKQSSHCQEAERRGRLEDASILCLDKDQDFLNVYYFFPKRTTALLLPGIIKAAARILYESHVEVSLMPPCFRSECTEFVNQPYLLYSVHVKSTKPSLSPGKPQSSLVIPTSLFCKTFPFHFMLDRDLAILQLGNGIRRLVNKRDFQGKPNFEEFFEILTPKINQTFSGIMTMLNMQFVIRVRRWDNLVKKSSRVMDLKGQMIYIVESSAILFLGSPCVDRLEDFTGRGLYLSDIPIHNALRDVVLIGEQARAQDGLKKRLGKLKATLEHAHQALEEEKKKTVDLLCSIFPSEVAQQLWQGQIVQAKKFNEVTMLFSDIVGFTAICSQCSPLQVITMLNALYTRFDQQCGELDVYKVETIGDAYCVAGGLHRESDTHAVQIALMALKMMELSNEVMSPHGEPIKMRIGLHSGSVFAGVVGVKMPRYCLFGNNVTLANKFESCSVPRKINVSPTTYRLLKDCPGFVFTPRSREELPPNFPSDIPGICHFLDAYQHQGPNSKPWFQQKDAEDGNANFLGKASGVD
T1 sequence (P20595 1-619): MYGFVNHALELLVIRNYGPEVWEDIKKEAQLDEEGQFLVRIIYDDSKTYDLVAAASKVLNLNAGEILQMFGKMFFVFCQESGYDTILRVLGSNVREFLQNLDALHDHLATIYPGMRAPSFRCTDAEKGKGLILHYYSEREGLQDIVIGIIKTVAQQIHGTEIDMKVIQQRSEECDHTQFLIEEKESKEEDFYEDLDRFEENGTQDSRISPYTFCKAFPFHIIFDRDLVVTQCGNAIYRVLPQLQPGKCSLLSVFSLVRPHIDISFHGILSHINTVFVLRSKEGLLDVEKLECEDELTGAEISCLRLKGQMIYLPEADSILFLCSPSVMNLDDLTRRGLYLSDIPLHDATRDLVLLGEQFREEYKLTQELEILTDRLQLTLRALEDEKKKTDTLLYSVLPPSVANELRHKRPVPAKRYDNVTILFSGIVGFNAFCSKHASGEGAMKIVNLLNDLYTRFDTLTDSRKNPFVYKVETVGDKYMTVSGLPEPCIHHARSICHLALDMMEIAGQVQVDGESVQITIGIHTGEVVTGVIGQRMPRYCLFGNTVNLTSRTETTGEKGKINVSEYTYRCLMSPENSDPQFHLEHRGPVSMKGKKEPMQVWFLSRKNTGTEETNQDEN
The assay is described as follows: Effect on a recombinant guanylate cyclase reporter cell line (B-2). It counts as cell-based. The conditions noted are these: in some cases mean values for individual determinations. The procedure:
B-2. Effect on a Recombinant Guanylate Cyclase Reporter Cell Line
The cellular effect of the inventive compounds is determined using a recombinant guanylate cyclase reporter cell line, as described in F. Wunder et al., Anal. Biochem. 339, 104-112 (2005).
Representative MEC values (MEC=minimum effective concentration) for the inventive compounds are shown in the table below (in some cases as mean values for individual determinations): […]

Counter-ions that a name gives are not always drawn.

With `CCCC(C)(N)CNC(=O)c1c(C)nn2c(OCc3ncccc3F)cc(C)cc12` (racemic) [Example 166, rac-N-(2-Amino-2-methylpentyl)-7-[(3-fluoropyridin-2-yl)methoxy]-2,5-dimethylpyrazolo[1,5-a]pyridine-3-carboxamide], the “MEC (minimum effective concentration)” value was 10 µM.

Regarding `Cc1cc(OCc2c(F)ccc(F)c2F)n2nc(C)c(C(=O)NC3CC(C)(C)NC(C)(C)C3)c2c1` [Example 9, 2,5-Dimethyl-N-(2,2,6,6-tetramethylpiperidin-4-yl)-7-[(2,3,6-trifluorobenzyl)oxy]pyrazolo[1,5-a]pyridine-3-carboxamide], the “MEC (minimum effective concentration)” value was determined as 1.0 µM.

In the case of `Cc1cc(OCc2c(F)cccc2F)n2nc(C)c(C(=O)N[C@@H]3CCNC3=O)c2c1` [Example 98, 7-[(2,6-Difluorobenzyl)oxy]-2,5-dimethyl-N-[(3R)-2-oxopyrrolidin-3-yl]pyrazolo[1,5-a]pyridine-3-carboxamide], the “MEC (minimum effective concentration)” value turned out to be 3.0 µM.

Consider `Cc1cc(OCc2c(F)cccc2F)n2nc(C)c(C(=O)N[C@H]3c4ccccc4C[C@H]3O)c2c1` [Example 71, 7-[(2,6-Difluorobenzyl)oxy]-N-[(1S,2R)-2-hydroxy-2,3-dihydro-1H-inden-1-yl]-2,5-dimethylpyrazolo[1,5-a]pyridine-3-carboxamide trifluoroacetate], for which the “MEC (minimum effective concentration)” value came out at 0.3 µM.

Take `CCOC(=O)c1cccc(C(CN)NC(=O)c2c(C)nn3c(OCc4c(F)cccc4F)cc(C)cc23)n1` (racemic) [Example 83, rac-Ethyl 6-{2-amino-1-[({7-[(2,6-difluorobenzyl)oxy]-2,5-dimethylpyrazolo[1,5-a]pyridin-3-yl}carbonyl)amino]ethyl} pyridine-2-carboxylate trifluoroacetate]: the “MEC (minimum effective concentration)” value came to 3.0 µM.

Regarding `Cc1cc(OCc2c(F)cccc2F)n2nc(C)c(C(=O)NCC(C)(N)CCF)c2c1` (single isomer, unassigned) [Example 49, ent-N-(2-Amino-4-fluoro-2-methylbutyl)-7-[(2,6-difluorobenzyl)oxy]-2,5-dimethylpyrazolo[1,5-a]pyridine-3-carboxamide], the “MEC (minimum effective concentration)” value turned out to be 0.3 µM.

`Cc1cc(OCc2c(F)cccc2F)n2nc(C)c(C(=O)NC3CCOc4c(C)cc(F)cc43)c2c1` (racemic) [Example 148, rac-7-[(2,6-Difluorobenzyl)oxy]-N-(6-fluoro-8-methyl-3,4-dihydro-2H-chromen-4-yl)-2,5-dimethylpyrazolo[1,5-a]pyridine-3-carboxamide]: the “MEC (minimum effective concentration)” value was 1.0 µM.

Turning to `CCCC(C)(N)CNC(=O)c1c(C)nn2c(OCC3CCCCC3)cc(C)cc12` (racemic) [Example 159, rac-N-(2-Amino-2-methylpentyl)-7-(cyclohexylmethoxy)-2,5-dimethylpyrazolo[1,5-a]pyridine-3-carboxamide], the “MEC (minimum effective concentration)” value came out at 3.0 µM.

In the case of `Cc1cc(OCc2c(F)cccc2F)n2nc(C)c(C(=O)NCC(C)(N)CCCF)c2c1` (single isomer, unassigned) [Example 44, ent-N-(2-Amino-5-fluoro-2-methylpentyl)-7-[(2,6-difluorobenzyl)oxy]-2,5-dimethylpyrazolo[1,5-a]pyridine-3-carboxamide], the “MEC (minimum effective concentration)” value was found to be 0.3 µM.

As for `Cc1cc(OCc2c(F)cccc2F)n2nc(C)c(C(=O)Nc3ccc(N4CCNCC4)c(C(F)(F)F)c3)c2c1` [Example 125, 7-[(2,6-Difluorobenzyl)oxy]-2,5-dimethyl-N-[4-(piperazin-l-yl)-3-(trifluoromethyl)phenyl]pyrazolo[1,5-a]pyridine-3-carboxamide], the “MEC (minimum effective concentration)” value came out at 3.0 µM.

Consider `Cc1cc(OCc2c(F)cccc2F)n2nc(C)c(C(=O)NC3CCC(N)C3)c2c1` (racemic) [Example 130, rac-N-(3-Aminocyclopentyl)-7-[(2,6-difluorobenzyl)oxy]-2,5-dimethylpyrazolo[1,5-a]pyridine-3-carboxamide], for which the “MEC (minimum effective concentration)” value was 3.0 µM.

The values are drawn from US9422285B2, “Substituted pyrazolo[1,5-A]-pyridine-3-carboxamides and use thereof” (Bayer Pharma Aktiengesellschaft, priority 2014, dated 2016).
